Measured values: patent publication US20240398783A1, “Compounds and Pharmaceutical Compositions Comprising Inhibitors of Amyloid Peptide Interactions with Glycosaminoglycans, Methods of Treatment and Use Thereof” (Gismo Therapeutics, Inc., priority 2021, published 2024)
pIC50: −log10 of the molar value. Where a name gives a salt, the structure may show the parent alone. Read-outs that look alike come from different tables or passages of the source.

Columns and labels:
[1] = target: Alpha-Synuclein Protofibril binding to heparin (HS-GAG) (Homo sapiens, UniProt P37840); assay: Inhibition of alpha-synuclein protofibril binding to immobilized heparin-BSA (ELISA); set-up: species or system porcine; settings: for inhibition at 30 µM: read-out: Alpha-Synuclein/Heparin Activity (% inhibition class)
Description: (§1) Porcine intestinal mucosa heparin conjugated to Bovine Serum Albumin (Heparin-BSA) was prepared as described (Najjam, S. et al. 1997, Cytokine 12, 1013-1022). Heparin is a sulfated HS-GAG and is commonly used as a HS-GAG in biochemical and binding assays (Lindahl, U. and Kjellen, L. (2013) ibid). Heparin-BSA at 0.01 mg/ml in Phosphate Buffered Saline (PBS; pH 7.4) was added to a 96 well polystyrene ELISA plate (NUNC Cat. No. 449824; 100 μl per well) and incubated Over Night (ON) at 4 degrees Celsius. For negative controls, ELISA plates were coated with BSA instead of Heparin-BSA, using the same procedure. Following the incubation, the plate was washed consecutively, by immersion, with de-ionized water and PBS (pH 7.4). The ELISA plate was then blocked with nonfat milk (2%, 200 μl per well) for 2 hours at Room Temperature (RT) with gentle shaking. Following blocking, the plate was washed with de-ionized water then PBS (pH 7.4). GBAPs were dissolved and diluted in PBS (pH 6.5, supplemented with 0.1% BSA) at desired concentrations, added to the ELISA plates containing immobilized Heparin-BSA (100 μl per well) and incubated for 2 hours at RT with gentle shaking. Following incubation, the plate was washed with de-ionized water and three times with PBS (pH 6.5) plus Tween. Bound GBAP was detected by a monoclonal antibody specific for that GBAP, followed by incubation with secondary antibody conjugated to horseradish peroxidase (HRP). Antibody was diluted in PBS (pH 6.5 supplemented with 1% BSA). Following each incubation with antibody, the plate was washed with de-ionized water and three times with PBS (pH 6.5) wash buffer containing 0.1% Tween. The peroxidase substrate chromogen, TMB (Dako Cat. No. S1599) was added (100 μl per well) to the ELISA plate and incubated at room temperature. After 5 minutes ELISA Stop Solution (hydrochloric acid 1N, sulfuric acid 3N) was added (100 μl per well) to stop the peroxidase catalyzed colorimetric reaction. The Optical Density of the samples was measured at 450 nm using an ELISA plate reader (BioTek Synergy H1). Following color development, the % inhibition compared to control (BSA-coated plates) was determined. IC-50s were calculated using GraphPad Prism software.
The assay was performed as described in Example 43, with the following modifications. Following to coating the plates with Heparin-BSA, plates were washed as described. The compounds were dissolved in DMSO at 10 mM final concentration and further diluted prior to assay. DMSO concentration in the screening well was up to […]. Individual compounds were co-incubated with alpha-synuclein on plates containing immobilized heparin. Alpha-synuclein purchased from rPeptide (Cat. No. S1001) was used to prepare protofibrils as described in Ihse et al., 2017. Alpha-synuclein was dissolved in PBS (pH7.4) to a concentration of 140 μM (˜2 mg/ml), and incubated for 7 days at 37° C. with rotary agitation (400 rpm). Resulting fibrils were sonicated for 10 minutes in ultrasonic water bath, quickly frozen and kept in aliquots at −80 degrees Celsius. Protofibrillar alpha-synuclein diluted in PBS (pH 6.5, supplemented with BSA, 0.1%) was added to the ELISA plate (100 μl per well) and incubated for 2 hours at RT with gentle shaking. Following the incubation, the plate was washed with de-ionized water and three times with PBS (pH 6.5) plus Tween. Bound Alpha-synuclein was detected by Anti-Alpha-synuclein Monoclonal Antibody 211 (Santa Cruz Cat. No. sc-12767), followed by secondary anti-IgG antibody conjugated to HRP (R&D System, Cat. No. HAF007). Following to color development with TMB, as described in Example 43, the Optical Density of the samples was measured at 450 nm using an ELISA plate reader. Following color development, the % inhibition compared to control (no compound, DMSO control) for every compound was determined.
An example of inhibition curve is shown in FIG. 1 for Inhibitor Compounds 22 and 24. […]

[2] = target: T1, SAA binding to heparin (HS-GAG) (Homo sapiens, UniProt P0DJI8); assay: Inhibition of SAA binding to immobilized heparin-BSA (ELISA); set-up: species or system porcine
T1 sequence (P0DJI8 19-122): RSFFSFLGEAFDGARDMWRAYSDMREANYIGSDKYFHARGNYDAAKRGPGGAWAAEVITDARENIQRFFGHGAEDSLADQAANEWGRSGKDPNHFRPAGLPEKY
Description: as §1
The assay was performed as described in Example 43, with the following modifications. Following to coating the plates with Heparin-BSA, plates were washed as described. The compounds were dissolved in DMSO at 10 mM final concentration and further diluted prior to assay. DMSO concentration in the screening well was up to 2%. Individual compounds were co-incubated with SAA on plates containing immobilized heparin. Serum amyloid A (SAA) from PeProtech (NJ, USA, Cat. No. 300-53) was dissolved in DMSO, quickly frozen and kept in aliquots at −80 degrees Celsius. SAA dissolved in Tris buffer (pH 6.5, supplemented with BSA, 0.1%) was added to the ELISA plate (100 μl per well) and incubated for 2 hours at RT with gentle shaking. Following the incubation, the plate was washed with de-ionized water and three times with Tris Buffered Saline (TBS, pH 6.5) plus Tween. Bound SAA was detected by Anti-SAA Monoclonal Antibody (R&D System Cat. No. MAB30192), followed by secondary anti-IgG antibody conjugated to HRP (R&D System, Cat. No. HAF007). Antibody was diluted in TBS antibody buffer (pH6.5 supplemented with 1% BSA). Following each incubation with antibody, the plate was washed with de-ionized water and three times with TBS (pH6.5) wash buffer containing 0.1% Tween. Following to color development with TMB, as described in Example 43, the Optical Density of the samples was measured at 450 nm using an ELISA plate reader. Following color development, the % inhibition compared to control (no compound, DMSO control) for every compound was determined.
As described in Example 43, Heparin in the form of Heparin-BSA conjugate is used as a source of HS-GAG. For each compound IC-50 value in SAA—heparin-BSA binding assay is shown in μM (micromolar). […]

[3] = alpha-synuclein protofibrils, heparin-BSA, read-out: Alpha-Synuclein/Heparin Activity (IC-50)
[4] = read-out: Serum Amyloid A/Heparin Activity (% inhibition class)
[5] = 30 μM compound, alpha-synuclein protofibrils, heparin-BSA
[6] = 30 μM compound; SAA, heparin-BSA; read-out: Serum Amyloid A/Heparin Activity (% inhibition class)
[7] = Alpha-Synuclein/Heparin Activity (IC-50), alpha-synuclein protofibrils, heparin-BSA
[8] = read-out: Serum Amyloid A/Heparin Activity (IC-50); SAA, heparin-BSA

Compound | inhibition at 30 µM [1] [%] | inhibition at 30 µM [2, 4] [%] | pIC50 [1, 7] | also measured
C/C(=N\Nc1ncnc2cc(Cl)ccc12)c1ccc(-n2cc(C)nc2C)nc1 [Compound 27, (E)-7-chloro-4-(2-(1-(6-(2,4-dimethyl-1H-imidazol-1-yl)pyridin-3-yl)ethylidene)hydrazineyl)quinazoline hydrochloride] | – | – | – | pIC50 [1, 3]: 5.71; pIC50 ([2]; SAA, heparin-BSA; hydrochloride; read-out: Serum Amyloid A/Heparin Activity (IC-50)): 4.61
C/C(=N\Nc1ncnc2cc(F)ccc12)c1ccc(-n2cc[n+](C)c2)nc1 [Compound 26, (E)-1-(5-(1-(2-(7-fluoroquinazolin-4-yl)hydrazineylidene)ethyl)pyridin-2-yl)-3-methyl-1H-imidazol-3-ium phosphoric acid salt] | > 30 | < 30 | – | –
CCN(CC)Cc1cccc(Nc2ccnc3cc(Cl)ccc23)c1 [Compound 42, 7-chloro-N-(3-((diethylamino)methyl)phenyl)quinolin-4-amine] | – | – | – | inhibition at 30 µM [1, 5]: < 30%; inhibition at 30 µM [2, 6]: < 30%
CC(=NNc1ccnc2cc(Cl)ccc12)c1ccc(-n2cc[n+](C)c2)nc1 [Compound 23, 1-(5-(1-(2-(7-chloroquinolin-4-yl)hydrazineylidene)ethyl)pyridin-2-yl)-3-methyl-1H-imidazol-3-ium iodide] | < 30 | < 30 | – | –
CC(=NNc1ccnc2cc(Cl)ccc12)c1ccc(-n2ccnc2)cc1 [Compound 36, 4-(2-(1-(4-(1H-imidazol-1-yl)phenyl)ethylidene)hydrazineyl)-7-chloroquinoline phosphate] | – | – | 5.38 | pIC50 [2, 8]: 4.66
C/C(=N\Nc1ncnc2cc(Cl)ccc12)c1ccc(-n2cc(C)nc2C)nc1 [Compound 18, (E)-7-chloro-4-(2-(1-(6-(2,4-dimethyl-1H-imidazol-1-yl)pyridin-3-yl)ethylidene)hydrazineyl)quinazoline phosphoric acid salt] | – | – | – | pIC50 [1, 3]: 5.77; pIC50 ([2]; SAA, heparin-BSA; read-out: Serum Amyloid A/Heparin Activity (IC-50)): 4.65
CCN1CCN(c2ccc(Nc3ccnc4cc5ccccc5cc34)cc2)CC1 [Compound 39, N-(4-(4-ethylpiperazin-1-yl)phenyl)benzo[g]quinolin-4-amine] | – | – | 5.47 | inhibition at 30 µM [2, 6]: > 30%
Clc1ccc2c(N/N=C/c3ccc(-n4cccn4)cc3)ccnc2c1 [Compound 3, (E)-4-((E)-(4-(1H-pyrazol-1-yl)benzylidene)hydrazono)-7-chloro-1,4-dihydroquinoline] | – | > 30 | 5.77 | –
CN1CCN(c2cc(Nc3ccnc4cc(Cl)ccc34)ccn2)CC1 [Compound 20, 7-chloro-N-(2-(4-methylpiperazin-1-yl)pyridin-4-yl)quinolin-4-amine] | < 30 | > 30 | – | –
O=S1(=O)CCN(Cc2ccc(/C=N/Nc3ccnc4cc(F)ccc34)cc2)CC1 [Compound 10, (E)-4-(4-((2-(7-fluoroquinolin-4-yl)hydrazono)methyl)benzyl)thiomorpholine 1,1-dioxide] | – | – | – | inhibition at 30 µM [1, 5]: < 30%; inhibition at 30 µM [2, 6]: < 30%
Cc1ncn(-c2ccc(/C=N\Nc3ncnc4cc(Cl)ccc34)cn2)c1C [Compound 15, 7-chloro-4-(2-((6-(4,5-dimethyl-1H-imidazol-1-yl)pyridin-3-yl)methylene)hydrazineyl)quinazoline hydrochloride] | – | – | 5.28 | pIC50 [2, 8]: 4.91
Fc1cc(/C=N/Nc2ccnc3cc(Cl)ccc23)ccc1-n1ccnc1 [Compound 35, (E)-7-chloro-4-(2-(3-fluoro-4-(1H-imidazol-1-yl)benzylidene)hydrazineyl)quinoline hydrochloride] | < 30 | – | – | pIC50 [2, 8]: 4.50
